Results taken from patent US20180020662A1, “Substituted 1-cycloalkyl-2-oxotetrahydroquinolin-6-ylsulfonamides or salts thereof and use thereof to increase stress tolerance in plants” (BAYER CROPSCIENCE AKTIENGESELLSCHAFT, priority 2015, published 2018).

Columns and labels:
Triticum aestivum = assay: Drought stress test on potted crop plants, spray application, visual scoring against stressed control plants; assay type: in vivo; parameters: key: 0: no positive effect; +: slight positive effect; ++: clear positive effect; +++: strong positive effect; settings: mean of at least three repeats
Procedure: (§1) Seeds of monocotyledonous and dicotyledonous crop plants were sown in sandy loam in plastic pots, covered with soil or sand and cultivated in a greenhouse under good growth conditions. The test plants are treated at the early leaf stage (BBCH10-BBCH13). To assure uniform water supply before commencement of stress, the potted plants were supplied with water by dam irrigation prior to substance application. The inventive compounds were first formulated as wettable powders (WP) or dissolved in a solvent mixture. The further dilution was effected with water supplemented with 0.2% wetting agent (e.g. agrotin). The finished spray liquor was sprayed onto the green parts of the plant at an equivalent water application rate of 600 I/ha. Substance application was followed immediately by stress treatment of the plants. Drought stress was induced by gradual drying out under the following conditions: “Day”: 14 hours with illumination at […]. “Night”: 10 hours without illumination at […]. The duration of the respective stress phases was guided mainly by the condition of the stressed control plants. It was ended (by re-irrigating and transfer to a greenhouse with good growth conditions) as soon as irreversible damage was observed on the stressed control plants. The end of the stress phase was followed by an about 4-7-day recovery phase, during which the plants were once again kept under good growth conditions in a greenhouse. The duration of the recovery phase was guided mainly by when the trial plants had attained a state which enabled visual scoring of potential effects, and was therefore variable. Once this juncture had been reached, the appearance of the plants treated with test substances was recorded in comparison to the stressed control plants by the following categories: • 0 no positive effect • + slight positive effect • ++ clear positive effect • +++ strong positive effect In order to rule out any influence on the effects observed by any fungicidal or insecticidal action of the test compounds, it was additionally ensured that the tests proceeded without fungal infection or insect infestation. The values reported in tables A-1 and A-2 below are mean values of the results from at least three repeats. Effects of selected compounds of the general formula (I) under drought stress according to the following tables A-1 and A-2: In the above tables: BRSNS =Brassica napus TRZAS =Triticum aestivum

[1] = molecular target: T1, phosphatase ABI1 via the co-regulator RCAR11/PYR1 (Arabidopsis thaliana, UniProt O49686+P49597); assay: In vitro assay: inhibition of ABI1 dephosphorylation of 4-methylumbelliferyl phosphate (MUP), fluorescence; assay type: biochemical; settings: concentration of 5 mM of the substance in DMSO and water, 35° C., 20 minutes
T1 sequence (O49686 1-191): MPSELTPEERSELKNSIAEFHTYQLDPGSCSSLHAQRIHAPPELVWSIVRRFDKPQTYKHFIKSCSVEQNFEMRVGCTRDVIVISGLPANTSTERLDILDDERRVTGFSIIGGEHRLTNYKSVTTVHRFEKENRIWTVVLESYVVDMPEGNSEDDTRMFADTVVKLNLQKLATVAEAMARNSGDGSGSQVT
T1 sequence (P49597 1-434): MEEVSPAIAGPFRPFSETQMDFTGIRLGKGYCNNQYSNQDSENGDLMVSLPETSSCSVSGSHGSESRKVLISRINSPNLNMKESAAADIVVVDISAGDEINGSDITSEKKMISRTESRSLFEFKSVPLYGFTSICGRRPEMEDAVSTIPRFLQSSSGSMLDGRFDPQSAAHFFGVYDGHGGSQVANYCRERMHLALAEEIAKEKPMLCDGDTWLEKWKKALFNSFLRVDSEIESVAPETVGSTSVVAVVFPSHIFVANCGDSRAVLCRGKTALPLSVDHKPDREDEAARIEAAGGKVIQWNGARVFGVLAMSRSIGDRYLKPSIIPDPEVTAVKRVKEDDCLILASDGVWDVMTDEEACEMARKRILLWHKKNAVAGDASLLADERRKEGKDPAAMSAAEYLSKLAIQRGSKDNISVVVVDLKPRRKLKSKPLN
Excerpt: Effects of the phytohormone abscisic acid (ABA) on the behavior of plants under abiotic stress and the mechanism of action of ABA are described in the literature (cf. Abrams et al., WO97/23441, Park et al. Science, 2009, 324, 1068; Grill et al. Science, 2009, 324, 1064; Tanokura et al. Biophysics, 2011, 7, 123; Schroeder et al. Plant J. 2010, 61, 290). Therefore, it is possible with the aid of a suitable in vitro test system to derive a correlation between the action of ABA and the stress response of a plant under abiotic stress. In the event of water deficiency (drought stress), plants form the phytohormone abscisic acid (ABA). This binds, along with a co-regulator (Regulatory Component of ABA-Receptor=RCAR according to Grill et al. Science, 2009, 324, 1064 or PYR/PYL according to Cutler et al. Science, 2009, 324, 1068), to a phosphatase (e.g. ABI1, a type 2C protein phosphatase, also abbreviated to PP2C) and inhibits its activity. As a result, a “downstream” kinase (e.g. SnRK2) is no longer dephosphorylated. This kinase, which is thus active, via phosphorylation of transcription factors (e.g. AREB/ABF, cf. Yoshida et al Plant J. 2010, 61, 672), switches on a genetic protection program to increase drought stress tolerance. The assay described hereinafter utilizes the inhibition of the phosphatase ABI1 via the co-regulator RCAR11/PYR1 aus Arabidopsis thaliana. For the determination of activity, the dephosphorylation of 4-methylumbelliferyl phosphate (MUP) was measured at 460 nm. The in vitro assay was conducted in Greiner 384-well PS microplates F-well, using two controls: a) 0.5% dimethyl sulfoxide (DMSO) and b) 5 μM abscisic acid (ABA). The assay described here was generally conducted with substance concentrations of the appropriate chemical test substances in a concentration range of 0.1 μM to 100 μM in a solution of DMSO and water. The substance solution thus obtained, if necessary, was stirred with esterase from porcine liver (EC 3.1.1.1) at room temperature for 3 h and centrifuged at 4000 rpm for 30 min. A total volume of 45 μl was introduced into each cavity of the microplate, having the following composition: • 1) 5 μl of substance solution, i.e. a) DMSO 5% or b) abscisic acid solution or c) the corresponding example compound of the general formula (I) dissolved in 5% DMSO. • 2) 20 μl of enzyme buffer mix, composed of a) 40% by vol. of enzyme buffer (10 ml contain equal proportions by volume of 500 mM Tris-HCl pH 8, 500 mM NaCl, 3.33 mM MnCl2, 40 mM dithiothreitol (DTT)), b) 4% by vol. of ABI1 dilution (protein stock solution was diluted so as to give, after addition, a final concentration in the assay of 0.15 μg ABI1/well), c) 4% by vol. of RCAR11 dilution (enzyme stock was diluted so as to give, on addition of the dilution to the enzyme buffer mix, a final concentration in the assay of 0.30 μg enzyme/well), d) 5% by vol. of Tween20 (1%), e) 47% by vol. H2O bi-dist. • 3) 20 μl of substrate mix, composed of a) 10% by vol. of 500 mM Tris-HCl pH 8, b) 10% by vol. of 500 mM NaCl, c) 10% by vol. of 3.33 mM MnCl2, d) 5% by vol. of 25 mM MUP, 5% by vol. of Tween20 (1%), 60% by vol. of H2O bi-dist.
Enzyme buffer mix and substrate mix were made up 5 minutes prior to the addition and warmed to a temperature of 35° C. On completion of pipetting of all the solutions and on completion of mixing, the plate was incubated at 35° C. for 20 minutes. Finally, a relative fluorescence measurement was made at 35° C. with a BMG Labtech “POLARstar Optima” microplate reader using a 340/10 nm excitation filter and a 460 nm emission filter. The efficacy of the compounds of the general formula (I) is reported in the table which follows using abscisic acid […] as comparative substance (no. 38) according to the following classification: ++++(inhibition ≧90%), +++(90% >inhibition ≧70%), ++(70% >inhibition ≧50%), +(50% >inhibition ≧30%). […]

Brassica napus = assay: Drought stress test on potted crop plants, spray application, visual scoring against stressed control plants; assay type: in vivo; parameters: key: 0: no positive effect; +: slight positive effect; ++: clear positive effect; +++: strong positive effect; settings: mean of at least three repeats
Procedure: as §1

| Compound | Effect (TRZAS) (Triticum aestivum; dosage 250 g/ha) | ABI1 inhibition [1] | Effect (TRZAS) (Triticum aestivum; dosage 25 g/ha) | Effect (BRSNS) (Brassica napus; dosage 25 g/ha) | Effect (BRSNS) (Brassica napus; dosage 250 g/ha) |
| --- | --- | --- | --- | --- | --- |
| N#Cc1ccc(S(=O)(=O)Nc2ccc3c(c2)CCC(=O)N3C23CC(C2)C3)cc1 [A30-45] | + |  |  |  |  |
| O=C1CCc2cc(NS(=O)(=O)Cc3ccc(Cl)cc3)ccc2N1C1(C2CC2)CC1 [A3-165] | + | ++++ (inhibition ≧90%) |  |  |  |
| N#Cc1ccc(S(=O)(=O)Nc2ccc3c(c2)CCC(=O)N3C2CC2C2CC2)cc1 (centres unmarked) [A16-45] |  |  | + | ++ |  |
| Cc1cccc(CS(=O)(=O)Nc2ccc3c(c2)CCC(=O)N3C23CC(C2)C3)c1 [A30-153] |  | +++ (90% >inhibition ≧70%) |  |  | + |
| N#Cc1ccc(S(=O)(=O)Nc2ccc3c(c2)CCC(=O)N3C2CC(F)(F)C2)cc1 [A39-45] | ++ |  |  |  |  |
| N#Cc1ccc(CS(=O)(=O)Nc2ccc3c(c2)CCC(=O)N3C2(C3CC3)CC2)cc1 [A3-181] |  | ++++ (inhibition ≧90%) | + |  |  |
| O=C1CCc2cc(NS(=O)(=O)Cc3ccc(F)cc3)ccc2N1C12CC(C1)C2 [A30-158] |  | ++++ (inhibition ≧90%) | + |  |  |
| CC1CC(N2C(=O)CCc3cc(NS(=O)(=O)Cc4ccc(F)cc4)ccc32)C1 (centres unmarked) [A26-158] |  | ++++ (inhibition ≧90%) |  | + |  |
| CC1(N2C(=O)CCc3cc(NS(=O)(=O)c4ccc(C#N)cc4)ccc32)CC1 [A1-45] |  |  | + |  |  |
| CC1(N2C(=O)CCc3cc(NS(=O)(=O)Cc4cccc(Cl)c4)ccc32)CC1 [A1-166] |  | +++ (90% >inhibition ≧70%) |  |  | ++ |
| CC1(N2C(=O)CCc3cc(NS(=O)(=O)Cc4ccc(Cl)cc4)ccc32)CC1 [A1-165, 1-(4-Chlorophenyl)-N-[1-(1-methylcyclopropyl)-2-oxo-1,2,3,4-tetrahydroquinolin-6-yl]methanesulfonamide] | + | ++++ (inhibition ≧90%) |  |  | ++ |
| O=C1CCc2cc(NS(=O)(=O)Cc3ccc(Cl)cc3)ccc2N1C1CC1C(F)(F)F (centres unmarked) [A37-165] | ++ | +++ (90% >inhibition ≧70%) |  |  |  |
| O=C1CCc2cc(NS(=O)(=O)Cc3ccc(Cl)cc3)ccc2N1C12CC(C1)C2 [A30-165] | ++ | ++++ (inhibition ≧90%) |  |  |  |
| O=C1CCc2cc(NS(=O)(=O)Cc3ccc(F)cc3)ccc2N1C1(C2CC2)CC1 [A3-158] | + | ++++ (inhibition ≧90%) |  |  |  |
| CC1(N2C(=O)CCc3cc(NS(=O)(=O)Cc4ccc(C#N)cc4)ccc32)CC1 [A1-181] | + | ++++ (inhibition ≧90%) |  |  | ++ |
